Experiments:
Assay in all cases: KINOMEscan
Assay type in all cases: binding
Conditions in all cases: read-out: % Ctrl
[1] = target: T1, ABL1(T315I)-nonphosphorylated (Homo sapiens, UniProt P00519, T315I)
T1 construct: purchased DiscoveRx KINOMEscan

AKT1 = target: T2, AKT1 (Homo sapiens, UniProt P31749)
T2 construct: purchased DiscoveRx KINOMEscan
Method in brief: (§1)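 Competition binding panel of 442 non-mutant kinases: test compound at 5 and 10 μM competed with an active-site-directed ligand for 1 h with shaking. Bound kinase was eluted with 0.5 μM ligand and quantified by qPCR; %Ctrl = (compound − positive control)/(DMSO − positive control) × 100, lower meaning tighter binding.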

CAMK1 = target: T3, CAMK1 (Homo sapiens, UniProt Q14012)
T3 construct: purchased DiscoveRx KINOMEscan
Method in brief: as §1

CAMK1D = target: T4, CAMK1D (Homo sapiens, UniProt Q8IU85)
T4 construct: purchased DiscoveRx KINOMEscan
Method in brief: as §1

CAMK2A = target: T5, CAMK2A (Homo sapiens, UniProt Q9UQM7)
T5 construct: purchased DiscoveRx KINOMEscan
Method in brief: as §1

CAMK4 = target: T6, CAMK4 (Homo sapiens, UniProt Q16566)
T6 construct: purchased DiscoveRx KINOMEscan
Method in brief: as §1

CAMKK1 = target: T7, CAMKK1 (Homo sapiens, UniProt Q8N5S9)
T7 construct: purchased DiscoveRx KINOMEscan
Method in brief: as §1

CDK7 = target: T8, CDK7 (Homo sapiens, UniProt P50613)
T8 construct: purchased DiscoveRx KINOMEscan
Method in brief: as §1

CHEK2 = target: T9, CHEK2 (Homo sapiens, UniProt O96017)
T9 construct: purchased DiscoveRx KINOMEscan
Method in brief: as §1

CSK = target: T10, CSK (Homo sapiens, UniProt P41240)
T10 construct: purchased DiscoveRx KINOMEscan
Method in brief: as §1

CSNK2A2 = target: T11, CSNK2A2 (Homo sapiens, UniProt P19784)
T11 construct: purchased DiscoveRx KINOMEscan
Method in brief: as §1

DCAMKL2 = target: T12, DCAMKL2 (Homo sapiens, UniProt Q8N568)
T12 construct: purchased DiscoveRx KINOMEscan
Method in brief: as §1

DDR1 = target: T13, DDR1 (Homo sapiens, UniProt Q08345)
T13 construct: purchased DiscoveRx KINOMEscan
Method in brief: as §1

EPHA5 = target: T14, EPHA5 (Homo sapiens, UniProt P54756)
T14 construct: purchased DiscoveRx KINOMEscan
Method in brief: as §1

FLT1 = target: T15, FLT1 (Homo sapiens, UniProt P17948)
T15 construct: purchased DiscoveRx KINOMEscan
Method in brief: as §1

FLT3 = target: T16, FLT3 (Homo sapiens, UniProt P36888)
T16 construct: purchased DiscoveRx KINOMEscan
Method in brief: as §1

FLT3(R834Q) = target: T17, FLT3(R834Q) (Homo sapiens, UniProt P36888, R834Q)
T17 construct: purchased DiscoveRx KINOMEscan

HIPK3 = target: T18, HIPK3 (Homo sapiens, UniProt Q9H422)
T18 construct: purchased DiscoveRx KINOMEscan
Method in brief: as §1

LKB1 = target: T19, LKB1 (Homo sapiens, UniProt Q15831)
T19 construct: purchased DiscoveRx KINOMEscan
Method in brief: as §1

MAPKAPK5 = target: T20, MAPKAPK5 (Homo sapiens, UniProt Q8IW41)
T20 construct: purchased DiscoveRx KINOMEscan
Method in brief: as §1

MEK5 = target: T21, MEK5 (Homo sapiens, UniProt Q13163)
T21 construct: purchased DiscoveRx KINOMEscan
Method in brief: as §1

PAK2 = target: T22, PAK2 (Homo sapiens, UniProt Q13177)
T22 construct: purchased DiscoveRx KINOMEscan
Method in brief: as §1

PFPK5(P.falciparum) = target: T23, PFPK5(P.falciparum) (Plasmodium falciparum, UniProt P61075)
T23 construct: purchased DiscoveRx KINOMEscan
Method in brief: as §1

PRKCQ = target: T24, PRKCQ (Homo sapiens, UniProt Q04759)
T24 construct: purchased DiscoveRx KINOMEscan
Method in brief: as §1

RIOK2 = target: T25, RIOK2 (Homo sapiens, UniProt Q9BVS4)
T25 construct: purchased DiscoveRx KINOMEscan
Method in brief: as §1

RIPK4 = target: T26, RIPK4 (Homo sapiens, UniProt P57078)
T26 construct: purchased DiscoveRx KINOMEscan
Method in brief: as §1

TIE2 = target: T27, TIE2 (Homo sapiens, UniProt Q02763)
T27 construct: purchased DiscoveRx KINOMEscan
Method in brief: as §1

TNNI3K = target: T28, TNNI3K (Homo sapiens, UniProt Q59H18)
T28 construct: purchased DiscoveRx KINOMEscan
Method in brief: as §1

[2] = target: T29, TYK2(JH2domain-pseudokinase) (Homo sapiens, UniProt P29597)
T29 construct: TYK2(JH2domain-pseudokinase); purchased DiscoveRx KINOMEscan
Method in brief: as §1

YANK2 = target: T30, YANK2 (Homo sapiens, UniProt Q9NY57)
T30 construct: purchased DiscoveRx KINOMEscan
Method in brief: as §1

T30 sequence (Q9NY57 whole entry): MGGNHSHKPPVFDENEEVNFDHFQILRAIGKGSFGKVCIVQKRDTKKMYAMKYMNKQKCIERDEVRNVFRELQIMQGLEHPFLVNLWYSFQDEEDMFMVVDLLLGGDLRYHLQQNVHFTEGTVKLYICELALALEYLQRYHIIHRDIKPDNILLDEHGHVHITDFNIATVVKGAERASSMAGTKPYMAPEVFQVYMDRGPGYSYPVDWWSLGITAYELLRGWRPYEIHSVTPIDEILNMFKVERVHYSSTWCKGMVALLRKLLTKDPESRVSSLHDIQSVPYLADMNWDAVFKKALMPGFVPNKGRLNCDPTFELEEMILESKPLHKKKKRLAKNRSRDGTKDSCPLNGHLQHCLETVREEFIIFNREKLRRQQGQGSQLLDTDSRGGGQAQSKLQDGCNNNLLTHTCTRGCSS
T14 sequence (P54756 25-1037): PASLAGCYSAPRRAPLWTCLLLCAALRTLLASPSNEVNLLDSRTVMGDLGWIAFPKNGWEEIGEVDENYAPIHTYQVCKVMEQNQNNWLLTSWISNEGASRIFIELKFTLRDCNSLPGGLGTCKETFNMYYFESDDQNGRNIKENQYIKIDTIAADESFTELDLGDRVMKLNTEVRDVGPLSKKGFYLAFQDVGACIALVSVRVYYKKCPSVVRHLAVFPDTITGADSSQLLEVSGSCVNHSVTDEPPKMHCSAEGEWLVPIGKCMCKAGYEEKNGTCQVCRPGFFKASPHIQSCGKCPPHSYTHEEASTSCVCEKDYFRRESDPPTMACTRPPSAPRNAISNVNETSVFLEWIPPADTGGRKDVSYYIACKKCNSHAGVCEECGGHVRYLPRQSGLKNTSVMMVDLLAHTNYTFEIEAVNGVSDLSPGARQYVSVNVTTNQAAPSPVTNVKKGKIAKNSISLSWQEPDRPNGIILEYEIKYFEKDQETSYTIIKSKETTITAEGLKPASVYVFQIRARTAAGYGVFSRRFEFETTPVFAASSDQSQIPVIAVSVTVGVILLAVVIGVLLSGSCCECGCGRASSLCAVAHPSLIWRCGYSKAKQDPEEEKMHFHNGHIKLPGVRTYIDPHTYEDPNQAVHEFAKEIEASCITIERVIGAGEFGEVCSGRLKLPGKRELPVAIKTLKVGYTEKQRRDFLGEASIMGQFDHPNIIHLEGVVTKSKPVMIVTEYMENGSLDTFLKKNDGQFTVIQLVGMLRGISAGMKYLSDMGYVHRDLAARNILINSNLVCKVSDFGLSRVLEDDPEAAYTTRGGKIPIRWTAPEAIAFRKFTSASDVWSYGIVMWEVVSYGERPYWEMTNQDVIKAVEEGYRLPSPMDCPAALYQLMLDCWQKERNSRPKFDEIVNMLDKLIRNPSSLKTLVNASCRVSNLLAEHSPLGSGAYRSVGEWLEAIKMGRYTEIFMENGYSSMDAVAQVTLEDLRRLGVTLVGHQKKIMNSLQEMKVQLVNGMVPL
T18 sequence (Q9H422 whole entry): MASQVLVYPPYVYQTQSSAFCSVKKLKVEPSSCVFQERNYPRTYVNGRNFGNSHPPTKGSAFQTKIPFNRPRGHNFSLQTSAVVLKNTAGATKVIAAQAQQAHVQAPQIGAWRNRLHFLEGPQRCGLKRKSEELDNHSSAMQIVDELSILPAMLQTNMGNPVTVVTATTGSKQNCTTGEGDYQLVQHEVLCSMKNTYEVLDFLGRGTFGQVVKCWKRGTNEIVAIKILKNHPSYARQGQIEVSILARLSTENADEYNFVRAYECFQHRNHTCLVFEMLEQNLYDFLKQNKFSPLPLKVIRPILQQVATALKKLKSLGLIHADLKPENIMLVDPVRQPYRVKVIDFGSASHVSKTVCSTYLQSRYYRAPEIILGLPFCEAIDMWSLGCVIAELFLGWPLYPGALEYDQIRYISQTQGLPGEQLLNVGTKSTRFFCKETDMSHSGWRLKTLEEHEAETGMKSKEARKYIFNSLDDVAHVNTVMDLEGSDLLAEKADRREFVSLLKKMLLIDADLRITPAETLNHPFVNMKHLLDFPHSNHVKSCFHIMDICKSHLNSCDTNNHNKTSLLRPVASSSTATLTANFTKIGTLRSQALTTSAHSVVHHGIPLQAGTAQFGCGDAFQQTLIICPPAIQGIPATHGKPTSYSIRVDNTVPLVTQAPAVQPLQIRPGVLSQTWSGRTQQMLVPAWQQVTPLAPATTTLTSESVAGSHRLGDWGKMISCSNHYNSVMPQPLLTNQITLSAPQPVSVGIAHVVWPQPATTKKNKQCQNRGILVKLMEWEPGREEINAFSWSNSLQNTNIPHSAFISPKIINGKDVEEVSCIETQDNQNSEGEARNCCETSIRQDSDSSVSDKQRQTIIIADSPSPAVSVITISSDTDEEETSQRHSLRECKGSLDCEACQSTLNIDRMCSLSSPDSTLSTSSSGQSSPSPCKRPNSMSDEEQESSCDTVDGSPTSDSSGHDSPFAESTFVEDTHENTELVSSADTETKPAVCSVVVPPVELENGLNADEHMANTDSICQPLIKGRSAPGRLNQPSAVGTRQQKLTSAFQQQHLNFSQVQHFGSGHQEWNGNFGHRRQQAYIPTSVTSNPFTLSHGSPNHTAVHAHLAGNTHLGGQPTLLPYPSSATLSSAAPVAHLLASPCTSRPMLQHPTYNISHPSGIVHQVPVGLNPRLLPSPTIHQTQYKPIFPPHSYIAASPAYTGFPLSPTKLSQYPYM
T13 sequence (Q08345 19-913): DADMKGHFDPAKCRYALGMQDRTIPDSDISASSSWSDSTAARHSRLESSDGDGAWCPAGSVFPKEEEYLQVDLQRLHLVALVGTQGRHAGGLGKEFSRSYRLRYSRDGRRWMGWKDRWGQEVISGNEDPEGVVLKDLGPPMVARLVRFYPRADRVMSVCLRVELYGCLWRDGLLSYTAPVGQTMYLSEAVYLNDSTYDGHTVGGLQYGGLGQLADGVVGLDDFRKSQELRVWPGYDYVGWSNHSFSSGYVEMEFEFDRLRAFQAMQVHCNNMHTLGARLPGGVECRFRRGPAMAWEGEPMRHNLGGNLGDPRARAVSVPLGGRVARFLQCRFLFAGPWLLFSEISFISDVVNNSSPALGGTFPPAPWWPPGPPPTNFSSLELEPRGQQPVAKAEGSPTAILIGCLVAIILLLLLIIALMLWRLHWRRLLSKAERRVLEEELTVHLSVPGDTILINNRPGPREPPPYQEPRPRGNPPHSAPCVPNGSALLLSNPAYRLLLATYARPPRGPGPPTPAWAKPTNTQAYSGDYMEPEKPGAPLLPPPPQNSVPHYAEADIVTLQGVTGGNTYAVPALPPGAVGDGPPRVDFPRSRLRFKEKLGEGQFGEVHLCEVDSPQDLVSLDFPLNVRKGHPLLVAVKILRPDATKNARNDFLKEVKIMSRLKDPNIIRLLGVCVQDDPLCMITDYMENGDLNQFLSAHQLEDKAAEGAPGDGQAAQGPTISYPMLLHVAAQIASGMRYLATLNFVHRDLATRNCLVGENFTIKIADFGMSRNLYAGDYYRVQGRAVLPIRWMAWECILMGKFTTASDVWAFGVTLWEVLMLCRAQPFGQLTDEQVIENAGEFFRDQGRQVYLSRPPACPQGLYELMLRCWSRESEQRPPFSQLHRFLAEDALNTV
T22 sequence (Q13177 whole entry): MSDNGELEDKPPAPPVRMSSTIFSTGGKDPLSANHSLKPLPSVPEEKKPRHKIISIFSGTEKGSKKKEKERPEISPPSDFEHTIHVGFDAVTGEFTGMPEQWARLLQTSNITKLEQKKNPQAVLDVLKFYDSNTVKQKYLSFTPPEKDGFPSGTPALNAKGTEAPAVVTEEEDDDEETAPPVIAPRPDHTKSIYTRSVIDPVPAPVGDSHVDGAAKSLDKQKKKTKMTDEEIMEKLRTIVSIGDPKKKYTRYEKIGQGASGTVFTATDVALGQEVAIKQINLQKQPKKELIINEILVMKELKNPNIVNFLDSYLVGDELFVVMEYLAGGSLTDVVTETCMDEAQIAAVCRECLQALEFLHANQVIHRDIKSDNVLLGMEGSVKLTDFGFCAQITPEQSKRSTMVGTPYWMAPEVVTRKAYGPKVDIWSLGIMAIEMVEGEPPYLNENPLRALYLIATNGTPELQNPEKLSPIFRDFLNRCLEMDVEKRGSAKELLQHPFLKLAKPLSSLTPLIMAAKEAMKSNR
T25 sequence (Q9BVS4 whole entry): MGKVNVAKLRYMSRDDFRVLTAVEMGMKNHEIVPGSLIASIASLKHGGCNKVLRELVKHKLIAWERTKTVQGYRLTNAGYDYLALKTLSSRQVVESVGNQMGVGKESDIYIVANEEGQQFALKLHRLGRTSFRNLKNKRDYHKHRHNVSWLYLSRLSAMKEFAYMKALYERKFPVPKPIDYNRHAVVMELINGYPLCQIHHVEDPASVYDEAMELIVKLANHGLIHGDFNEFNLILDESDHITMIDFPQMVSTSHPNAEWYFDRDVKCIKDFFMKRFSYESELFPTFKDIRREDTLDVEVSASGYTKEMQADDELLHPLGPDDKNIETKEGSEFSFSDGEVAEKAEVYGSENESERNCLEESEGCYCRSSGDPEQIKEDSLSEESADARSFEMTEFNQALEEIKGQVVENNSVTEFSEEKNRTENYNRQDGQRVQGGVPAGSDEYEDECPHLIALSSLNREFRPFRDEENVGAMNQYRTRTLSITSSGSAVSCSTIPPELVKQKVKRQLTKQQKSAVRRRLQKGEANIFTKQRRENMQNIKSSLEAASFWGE
T23 sequence (P61075 whole entry): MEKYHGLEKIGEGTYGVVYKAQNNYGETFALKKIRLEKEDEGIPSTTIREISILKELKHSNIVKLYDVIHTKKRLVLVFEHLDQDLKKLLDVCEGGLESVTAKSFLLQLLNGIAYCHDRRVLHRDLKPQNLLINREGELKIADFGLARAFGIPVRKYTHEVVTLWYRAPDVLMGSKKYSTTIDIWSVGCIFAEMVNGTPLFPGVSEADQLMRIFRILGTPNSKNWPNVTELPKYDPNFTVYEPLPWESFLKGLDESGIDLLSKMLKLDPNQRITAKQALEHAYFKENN

SMILES: Cc1ccc(C2=Nc3cccnc3S(=O)(=O)c3ccccc32)cc1 [TBPT, 6-(p-tolyl)benzo[f] pyrido[2,3-b][1,4] thiazepine 11,11-dioxide]
- remaining binding at 5 µM ([1]; 5 μM): 100%
- remaining binding at 10 µM ([1]; 10 μM): 100%
- remaining binding at 5 µM (AKT1; 5 μM): 84%
- remaining binding at 10 µM (AKT1; 10 μM): 100%
- remaining binding at 5 µM (CAMK1; 5 μM): 96%
- remaining binding at 10 µM (CAMK1; 10 μM): 98%
- remaining binding at 5 µM (CAMK1D; 5 μM): 81%
- remaining binding at 10 µM (CAMK1D; 10 μM): 91%
- remaining binding at 5 µM (CAMK2A; 5 μM): 100%
- remaining binding at 10 µM (CAMK2A; 10 μM): 87%
- remaining binding at 5 µM (CAMK4; 5 μM): 100%
- remaining binding at 10 µM (CAMK4; 10 μM): 93%
- remaining binding at 5 µM (CAMKK1; 5 μM): 100%
- remaining binding at 10 µM (CAMKK1; 10 μM): 92%
- remaining binding at 5 µM (CDK7; 5 μM): 83%
- remaining binding at 10 µM (CDK7; 10 μM): 100%
- remaining binding at 5 µM (CHEK2; 5 μM): 100%
- remaining binding at 10 µM (CHEK2; 10 μM): 100%
- remaining binding at 5 µM (CSK; 5 μM): 96%
- remaining binding at 10 µM (CSK; 10 μM): 100%
- remaining binding at 5 µM (CSNK2A2; 5 μM): 100%
- remaining binding at 10 µM (CSNK2A2; 10 μM): 100%
- remaining binding at 5 µM (DCAMKL2; 5 μM): 100%
- remaining binding at 10 µM (DCAMKL2; 10 μM): 100%
- remaining binding at 5 µM (DDR1; 5 μM): 100%
- remaining binding at 10 µM (DDR1; 10 μM): 92%
- remaining binding at 5 µM (EPHA5; 5 μM): 92%
- remaining binding at 10 µM (EPHA5; 10 μM): 100%
- remaining binding at 5 µM (FLT1; 5 μM): 100%
- remaining binding at 10 µM (FLT1; 10 μM): 98%
- remaining binding at 5 µM (FLT3; 5 μM): 100%
- remaining binding at 10 µM (FLT3; 10 μM): 68%
- remaining binding at 5 µM (FLT3(R834Q); 5 μM): 89%
- remaining binding at 10 µM (FLT3(R834Q); 10 μM): 100%
- remaining binding at 5 µM (HIPK3; 5 μM): 100%
- remaining binding at 10 µM (HIPK3; 10 μM): 100%
- remaining binding at 5 µM (LKB1; 5 μM): 100%
- remaining binding at 10 µM (LKB1; 10 μM): 89%
- remaining binding at 5 µM (MAPKAPK5; 5 μM): 100%
- remaining binding at 10 µM (MAPKAPK5; 10 μM): 88%
- remaining binding at 5 µM (MEK5; 5 μM): 100%
- remaining binding at 10 µM (MEK5; 10 μM): 95%
- remaining binding at 5 µM (PAK2; 5 μM): 100%
- remaining binding at 10 µM (PAK2; 10 μM): 100%
- remaining binding at 5 µM (PFPK5(P.falciparum); 5 μM): 97%
- remaining binding at 10 µM (PFPK5(P.falciparum); 10 μM): 97%
- remaining binding at 5 µM (PRKCQ; 5 μM): 100%
- remaining binding at 10 µM (PRKCQ; 10 μM): 100%
- remaining binding at 5 µM (RIOK2; 5 μM): 95%
- remaining binding at 10 µM (RIOK2; 10 μM): 100%
- remaining binding at 5 µM (RIPK4; 5 μM): 100%
- remaining binding at 10 µM (RIPK4; 10 μM): 100%
- remaining binding at 5 µM (TIE2; 5 μM): 100%
- remaining binding at 10 µM (TIE2; 10 μM): 91%
- remaining binding at 5 µM (TNNI3K; 5 μM): 100%
- remaining binding at 10 µM (TNNI3K; 10 μM): 89%
- remaining binding at 5 µM ([2]; 5 μM): 82%
- remaining binding at 10 µM ([2]; 10 μM): 100%
- remaining binding at 5 µM (YANK2; 5 μM): 99%
- remaining binding at 10 µM (YANK2; 10 μM): 100%

— paper PMC4823954, “From fighting depression to conquering tumors: a novel tricyclic thiazepine compound as a tubulin polymerization inhibitor” (Cell Death & Disease, 2016)
